Assay [1] in a line: Hydrogen peroxide scavenging (Amplex Red assay, electrochemical techniques, glucosidase/glucose assay). In kind it is biochemical. The note with it: multiple methodologies. From the text:
This generation appears to involve the mechanism described by Wentworth et al in which proteins can utilize water as a catalyst to generate H2O2 (12) Once formed by lysozyme, H2O2 then reacts with intrinsic catalase to form a species of catalase termed Compound I (2) Compound I then acts to generate cyclic-guanosine monophosphate which in turn causes vasodilation. […] These as well as other mechanisms may account for the efficacy of ethyl-gallate treatment in septic shock.

The next assay concerns non-septic dog. Briefly: Ethyl gallate infusion in non-septic dogs. Type of assay: in vivo. From the text:
The effect of ethyl-gallate treatment on hemodynamics in the non-septic animal was different from that found in the septic animal. In this protocol, 5 grams of ethyl-gallate were given in a similar manner over the course of the 5 hr treatment-phase of the study.
We have thus far studied 5 dogs in septic shock in which ethyl gallate was infused. We have compared the results obtained in this group with those found in septic animals (n=5) in which this treatment was not given. In addition, in preliminary experiments, we have looked at the effect of ethyl gallate infusion on hemodynamics in non-septic animals (n=3). In a time control non-septic group in which placebo (normal saline solution) was given, we have studied one animal.
The purpose of this study was to determine whether ethyl-gallate could reverse the fall in MAP that occurs in this sepsis model. Ethyl gallate was infused after MAP pressure fell approximately 30 to 40% from the baseline value in which this decline in MAP was not responsive to volume infusion to return Pwp to the baseline value (septic shock condition). This approach would be consistent with that observed in the clinical situation in which vasopressors, such as norepinephrine would be given at this interval. In the two sepsis groups, the animals were allocated in randomized fashion in which one received ethyl-gallate and volume infusion, while in the other, volume infusion alone was given. In the two non-sepsis groups, one received ethyl-gallate while the other received placebo treatment. In the non-sepsis groups, only maintenance volume for anesthesia and for placebo drugs was given over the course of the experiment.

Where [2] appears, read: non-septic dogs, 5 grams over 5 hr.
Setting [3] is: non-septic dogs, ethyl-gallate infusion.

Regarding `CCOC(=O)c1cc(O)c(O)c(O)c1` [ethyl gallate], in assay [1], the “scavenging of hydrogen peroxide” value is “can scavenge”. The heart rate effect result in the assay on non-septic dog (non-septic dog, after infusion, FIG. 7) was “slight tachycardia”. Further, in the assay with non-septic dog (setting [2]), the “SVR as compared with pre-treatment” value is on record as “decrease” and the “change in MAP” value was “did not cause a change”. Further, in the assay with non-septic dog (setting [3]), the CO entry is recorded as “appeared to increase”, the SV result is reported as “appeared to increase” and the SW entry was “appeared to increase”.

The values above are taken from patent publication US20120277312A1, “Ethylgallate and Related Compounds as a Treatment for Sepsis and Septic Shock” (priority 2009, published 2012).
